Laboratory results as given in patent publication US8642657B2 (Gruenenthal GmbH, priority 2003, dated 2014).

Assays:
[1] = target: T1, rat VR1 (Rattus norvegicus, UniProt O35433); assay: 45Ca2+-uptake assay in CHO/VR1 cells, antagonism of capsaicin-stimulated uptake; format: cell-based; details: 45Ca2+ uptake stimulated by 50 nM capsaicin
T1 construct: expressed in transfected cells

[2] = target: T1, rat VR1; assay: [3H]resiniferatoxin (RTX) competition binding assay, VR1-transfected CHO cells
In short: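 Competition with [3H]RTX (50-100 pM) ran 60 min at 37° C using whole VR1-induced CHO cells in BSA-containing DPBS, nonspecific defined by 100 nM cold RTX. After centrifugation, pellet radioactivity counted by scintillation; Hill fits gave Ki and cooperativity.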

[3] = target: T1, rat VR1; details: rat VR1 expressed in CHO cells; cited from earlier work
[4] = competition with [3H]RTX, rat VR1 in CHO cells, read-out: Ki (nM) Binding Affinity

T1 sequence (O35433 whole entry): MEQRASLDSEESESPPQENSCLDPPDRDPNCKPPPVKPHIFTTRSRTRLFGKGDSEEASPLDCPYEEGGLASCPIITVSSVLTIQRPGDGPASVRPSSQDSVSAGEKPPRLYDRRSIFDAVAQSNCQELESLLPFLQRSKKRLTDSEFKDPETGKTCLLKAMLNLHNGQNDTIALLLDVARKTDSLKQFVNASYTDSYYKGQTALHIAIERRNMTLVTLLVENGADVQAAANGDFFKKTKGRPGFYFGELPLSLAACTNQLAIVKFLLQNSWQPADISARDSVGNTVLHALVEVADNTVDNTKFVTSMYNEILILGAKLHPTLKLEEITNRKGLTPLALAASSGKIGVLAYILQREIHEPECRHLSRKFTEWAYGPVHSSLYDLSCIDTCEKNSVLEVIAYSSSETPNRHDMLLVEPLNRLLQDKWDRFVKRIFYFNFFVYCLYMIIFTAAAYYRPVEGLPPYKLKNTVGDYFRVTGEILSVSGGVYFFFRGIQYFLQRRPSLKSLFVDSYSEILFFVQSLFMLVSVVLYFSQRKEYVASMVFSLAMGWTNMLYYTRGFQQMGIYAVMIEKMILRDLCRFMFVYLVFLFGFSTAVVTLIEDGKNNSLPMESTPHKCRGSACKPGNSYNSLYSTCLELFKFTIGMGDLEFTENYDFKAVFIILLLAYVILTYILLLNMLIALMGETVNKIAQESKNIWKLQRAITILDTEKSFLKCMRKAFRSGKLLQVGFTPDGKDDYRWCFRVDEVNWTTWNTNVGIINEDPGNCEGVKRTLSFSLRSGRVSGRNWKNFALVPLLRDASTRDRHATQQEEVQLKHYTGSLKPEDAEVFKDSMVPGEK

## C[C@H](NC(=S)NC[C@H](COC(=O)C(C)(C)C)Cc1ccccc1)c1ccc(NS(C)(=O)=O)cc1 [18-3, N-[(2R)-2-Benzyl-3-(pivaloyloxy)propyl]-N′-{(1S)-1-[4-(methylsulfonylamino)phenyl]ethyl}thiourea]
[1]
  Ki: 3470 nM
[2]
  Ki: 1140 nM
other
  melting point: 58 to 62 °C

## C[C@H](NC(=S)NC[C@@H](COC(=O)C(C)(C)C)Cc1ccccc1)c1ccc(NS(C)(=O)=O)cc1 [18-4, N-[(2S)-2-Benzyl-3-(pivaloyloxy)propyl]-N′-{(1S)-1-[4-(methylsulfonylamino)phenyl]ethyl}thiourea]
[1]
  Ki: 133 nM
[2]
  Ki: 706 nM
other
  melting point: 62 to 64 °C

## Cc1ccc(CC(CNC(=S)NC(C)c2ccc(NS(C)(=O)=O)cc2)COC(=O)C(C)(C)C)cc1C (stereo not shown) [18-5, N-[2-(3,4-Dimethylbenzyl)-3-(pivaloyloxy)propyl]-N′-{1-[4-(methylsulfonylamino)phenyl]ethyl}thiourea]
[1]
  Ki: 25.9 nM
[2]
  Ki: 37.2 nM
other
  melting point: 77 °C

## CC(NC(=S)NCC(COC(=O)C(C)(C)C)Cc1ccc(C(C)(C)C)cc1)c1ccc(NS(C)(=O)=O)cc1 (stereo not shown) [18-9, N-[2-(4-tert-Butylbenzyl)-3-(pivaloyloxy)propyl]-N′-{1-[4-(methylsulfonylamino)phenyl]ethyl}thiourea]
[1]
  Ki: 28.7 nM
[2]
  Ki: 42.7 nM
other
  melting point: 87 °C

## C[C@@H](NC(=S)NCC(COC(=O)C(C)(C)C)Cc1ccc(C(C)(C)C)cc1)c1ccc(NS(C)(=O)=O)cc1 (stereo partly drawn) [18-10, N-[2-(4-tert-Butylbenzyl)-3-(pivaloyloxy)propyl]-N′-{(1R)-1-[4-(methylsulfonylamino)phenyl]ethyl}thiourea]
[1]
  Ki: 23.9 nM
[2]
  Ki: 9.95 nM
other
  melting point: 88 to 90 °C

## C[C@@H](NC(=S)NC[C@H](COC(=O)C(C)(C)C)Cc1ccc(C(C)(C)C)cc1)c1ccc(NS(C)(=O)=O)cc1 [18-11, N-[(2R)-2-(4-tert-Butylbenzyl)-3-(pivaloyloxy)propyl]-N′-{(1R)-1-[4-(methylsulfonylamino)phenyl]ethyl}thiourea]
[1]
  Ki: 53 nM
[2]
  Ki: 15.7 nM
other
  melting point: 85 to 87 °C

## C[C@@H](NC(=S)NC[C@@H](COC(=O)C(C)(C)C)Cc1ccc(C(C)(C)C)cc1)c1ccc(NS(C)(=O)=O)cc1 [18-12, N-[(2S)-2-(4-tert-Butylbenzyl)-3-(pivaloyloxy)propyl]-N′-{(1R)-1-[4-(methylsulfonylamino)phenyl]ethyl}thiourea]
[1]
  Ki: 30.6 nM
[2]
  Ki: 8.09 nM
other
  melting point: 88 to 90 °C

## Cc1ccc(CC(CNC(=S)NC(C)c2ccc(NS(C)(=O)=O)c(F)c2)COC(=O)C(C)(C)C)cc1C (stereo not shown) [18-13, N-[2-(3,4-Dimethylbenzyl)-3-(pivaloyloxy)propyl]-N′-{1-[3-fluoro-4-(methylsulfonylamino)phenyl]ethyl}thiourea]
[1]
  Ki: 7.09 nM
[2]
  Ki: 37 nM
other
  melting point: 73 °C

## CC(NC(=S)NCC(COC(=O)C(C)(C)C)Cc1ccc(C(C)(C)C)cc1)c1ccc(NS(C)(=O)=O)c(F)c1 (stereo not shown) [18-14, N-[2-(4-tert-Butylbenzyl)-3-(pivaloyloxy)propyl]-N′-{1-[3-fluoro-4-(methylsulfonylamino)phenyl]ethyl}thiourea]
[1]
  Ki: 9.34 nM
[2]
  Ki: 37 nM
other
  melting point: 78 °C

## C[C@@H](NC(=S)N[C@@H](COC(=O)C(C)(C)C)Cc1ccccc1)c1ccc(NS(C)(=O)=O)cc1 [19-13, N-[(2R)-3-phenyl-1-pivaloyloxy-2-propyl]-N′-[(R)-α-methyl-4-(methylsulfonylamino)benzy]thiourea]
[1]
  Ki: 193 nM
[2]
  Ki: 420 nM
other
  melting point: 59 to 61 °C

## CCC(NC(=S)NCc1ccc(C(C)(C)C)cc1)c1ccc(NS(C)(=O)=O)c(F)c1 (stereo not shown) [20-12, N-(4-t-Butylbenzyl)-N′-{1-[4-(methylsulfonylamino)-3-fluorophenyl]propyl}thiourea]
[1]
  Ki: 54.3 nM
[2]; [4]
  Ki: 230 nM
other
  melting point: 85 °C

## CC(C)C(NC(=S)NCc1ccc(C(C)(C)C)cc1)c1ccc(NS(C)(=O)=O)c(F)c1 (stereo not shown) [20-13, N′-(4-t-Butylbenzyl)-N-{1-[4-(methylsulfonylamino)-3-fluorophenyl]-2-methylpropyl}thiourea]
[1]
  Ki: 223 nM
[2]; [4]
  Ki: 338 nM
other
  melting point: 84 °C

## CC(C)(C)c1ccc(CNC(=S)NC(c2ccccc2)c2ccc(NS(C)(=O)=O)c(F)c2)cc1 (stereo not shown) [20-14]
[1]
  Ki: 861 nM
[2]; [4]
  Ki: 100 nM
other
  melting point: 191 °C

## CC(C)(C)c1ccc(CNC(=S)NC(Cc2ccccc2)c2ccc(NS(C)(=O)=O)c(F)c2)cc1 (stereo not shown) [20-15, N-(4-t-Butylbenzyl)-N′-{1-[4-(methylsulfonylamino)-3-fluorophenyl]-2-phenylethyl}thiourea]
[1]
  Ki: 695 nM
[2]; [4]
  Ki: 1740 nM
other
  melting point: 116 °C

## CC(C)(C)c1ccc(CNC(=S)NC(C)(C)c2ccc(NS(C)(=O)=O)c(F)c2)cc1 [21-8, N-(4-t-Butylbenzyl)-N′-{1-methyl-1-[3-fluoro-4-(methylsulfonylamino)phenyl]ethyl}thiourea]
[1]
  Ki: 983 nM
[2]; [4]
  Ki: 7740 nM
other
  melting point: 83 to 85 °C

## COc1cc(C(C)(C)NC(=S)NCc2ccc(C(C)(C)C)cc2)ccc1NS(C)(=O)=O [21-9, N-(4-t-Butylbenzyl)-N′-{1-methyl-1-[3-methoxy-4-(methylsulfonylamino)phenyl]ethyl}thiourea]
[1]
  Ki: 663 nM
[2]; [4]
  Ki: 2890 nM
other
  melting point: 148 to 150 °C

## CC(C)(C)c1ccc(CNC(=S)NC2(c3ccc(NS(C)(=O)=O)cc3)CC2)cc1 [22-7, N-(4-t-Butylbenzyl)-N′-{1-[4-(methylsulfonylamino)phenyl]cyclopropyl}thiourea]
[1]
  Ki: 60.3 nM
[2]; [4]
  Ki: 171 nM
other
  melting point: 110 to 113 °C

## COc1cc(C2(NC(=S)NCc3ccc(C(C)(C)C)cc3)CC2)ccc1NS(C)(=O)=O [22-9, N-(4-t-Butylbenzyl)-N′-{1-[3-methoxy-4-(methylsulfonylamino)phenyl]cyclopropyl}thiourea]
[1]
  Ki: 243 nM
[2]; [4]
  Ki: 372 nM
other
  melting point: 100 to 103 °C

## CC(NC(=O)NCc1ccc(C(C)(C)C)cc1)c1ccc(NS(C)(=O)=O)cc1 (stereo not shown) [23-1, N-(4-t-Butylbenzyl)-N′-{1-[4-(methylsulfonylamino)phenyl]ethyl}urea]
[1]
  Ki: 544 nM
[2]
  Ki: 1190 nM
other
  melting point: 95 to 98 °C

## CC(NC(=O)NCc1ccc(C(C)(C)C)cc1)c1ccc(NS(C)(=O)=O)c(F)c1 (stereo not shown) [23-2, N-(4-t-Butylbenzyl)-N′-{1-[3-fluoro-4-(methylsulfonylamino)phenyl]ethyl}urea]
[1]
  Ki: 298 nM
[2]
  Ki: 447 nM
other
  melting point: 152 to 154 °C

## CC(NC(=O)Cc1ccc(C(C)(C)C)cc1)c1ccc(NS(C)(=O)=O)c(F)c1 (stereo not shown) [24-1, N-{1-[3-Fluoro-4-(methylsulfonylamino)phenyl]ethyl}-3-(4-tert-butylphenyl)acetamide]
[1]
  Ki: 2220 nM
[2]; [4]
  Ki: 2130 nM
other
  melting point: 134 to 136 °C

## CC(NC(=O)CCc1ccc(C(C)(C)C)cc1)c1ccc(NS(C)(=O)=O)c(F)c1 (stereo not shown) [24-2, N-{1-[3-Fluoro-4-(methylsulfonylamino)phenyl]ethyl}-3-(4-tert-butylphenyl)propanamide]
[1]
  Ki: 103 nM
[2]; [4]
  Ki: 376 nM
other
  melting point: 152 to 154 °C

## Cc1ccc(C=CC(=O)NC(C)c2ccc(NS(C)(=O)=O)c(F)c2)cc1C (stereo not shown) [24-5, N-{1-[3-Fluoro-4-(methylsulfonylamino)phenyl]ethyl}-3-(3,4-dimethylphenyl)-2-propenamide]
[1]
  Ki: 1350 nM
[2]
  Ki: 2520 nM
other
  melting point: 212 to 213 °C

## CC(NC(=O)C=Cc1ccc(Cl)cc1)c1ccc(NS(C)(=O)=O)c(F)c1 (stereo not shown) [24-7, N-{1-[3-Fluoro-4-(methylsulfonylamino)phenyl]ethyl}-3-(4-chlorophenyl)-2-propenamide]
[1]
  Ki: 938 nM
[2]
  Ki: 773 nM
other
  melting point: 219 to 221 °C

## Cc1ccc(C(C)CC(=O)NC(C)c2ccc(NS(C)(=O)=O)c(F)c2)cc1C (stereo not shown) [24-8, N-{1-[3-Fluoro-4-(methylsulfonylamino)phenyl]ethyl}-3-(3,4-dimethylphenyl)butanamide]
[1]
  Ki: 988 nM
[2]
  Ki: 3530 nM
other
  melting point: 152 to 154 °C

## Cc1ccc(CC(CNC(=S)NCc2ccc(NS(C)(=O)=O)cc2)COC(=O)C(C)(C)C)cc1C (stereo not shown) [Compound 1, N-[2-(3,4-dimethylbenzyl)-3-pivaloyloxypropyl]-N′-[4-(methylsulfonylamino)benzyl]thiourea]
[3]
  agonism/antagonism character: partial agonism
